In patent publication US6916843B1, “Anti-inflammatory actions of cytochrome P450 expoxygenase-derived eicosanoids” (The United States of America as represented by the …, priority 1999, dated 2005):
“Also recorded” adds a separate entry of the source. Peptide text beside a SMILES is read from it. * marks the point of attachment. Cbz = O=C(OCc1ccccc1)*

Tests used:
[1] = test system: IκB-α; assay: Fate of IκB-α after TNF-α stimulation of human endothelial cells; type: cell-based; conditions: TNF-α 10 ng/ml, 15 min; EET 100 nM
Description: Co-treatment with [11,12]-EET prevented the nuclear accumulation of RelA. Since the nuclear translocation of RelA requires the degradation of its endogenous cytoplasmic inhibitor, inhibitor kappa B (IκB-α), we followed the fate of IκB-α after TNF-α stimulation in the presence or absence of [11,12]-EET. Stimulation of human endothelial cells with TNF-α caused a rapid and almost complete disappearance of IκB-α which was prevented by co-treatment with [11,12]-EET, but not [14,15]-EET.
A set of gel shift assays was performed. […] In some assays, [11,12]-EET (100 nM) was also added directly to the IKK assay (in vitro). As a control for nonspecific phosphorylation, the assay was performed without the addition of immunoprecipitated IKK (no enzyme) or in the presence of a IκB-α mutant (ΔSer 32, Ser 36→Thr) as substrate. The assay was performed three times with similar results.
Specificity of IKB was determined by the complete absence of phosphorylation when the mutated IκB-α substrate, GST-1κB-α (Δ32,36: S→T) which cannot be phosphorylated at serine residues 32 and 36, was substituted for wild-type GST-IκB-α.

[2] = test system: bovine aortic endothelial cells (BAECs); assay: Hypoxia-reoxygenation-induced cell injury in BAECs (cell number, LDH release, trypan blue); type: cell-based; conditions: 1 μmol/L, added 10 min prior to hypoxia (24 h hypoxia, 4 h reoxygenation)
Method: Effects of P450-derived arachidonic acid metabolites on hypoxia-reoxygenalion-induced injury in BAECs. BAECs, either untransfected, or 48 hours after transfection with pcDNA3.1/GFP or pcDNA3.1/CYP2J2, or 10 min after treatment with eicosanoids, epoxide hydrolase inhibitors or vehicle, were exposed to hypoxia (95% nitrogen plus 5% carbon dioxide) for 24 hours, followed by reoxygenation (95% air plus 5% carbon dioxide) for 4 hours using an environmental chamber within a 37° C. incubator. Cells maintained under continuous (28 hours) normoxic conditions served as controls.
EETs were prepared by total chemical synthesis as previously described (Corey el al., 102 J. Am. Chem. Soc. 1433-1435 (1980), Falck et al., 23 Tetrahedron Lett. 1755-1756 (1982)). DHETs were prepared by chemical hydration of EETs as described by Capdevila et al., 187 Methods Enzymol. 386-394 (1990). Synthetic EETs and DHETs were purified by reverse-phase HPLC prior to use. BAECs, grown to ˜85% confluency, were treated with either synthetic [11,12]-EET, [11,12]-DHET, or [14,15]-EET in ethanol vehicle (1 μmol/L each, final concentration) for 10 min prior to exposure to hypoxia-reoxygenation. […] Cells treated with vehicle alone served as controls.
After hypoxia-reoxygenation, the cell number was determined using a hemocytometer and the degree of cell injury was assessed by measuring lactate dehydrogenase release into the culture medium using the CytoTox 96 Non-Radioactive Cytotoxicity Assay Kit (Promega, Madison, Wis.) and by counting the number of trypan blue dye stained cells. Data are expressed as a percentage of values obtained from control cells maintained under normoxic conditions.

[3] = test system: mononuclear cell adhesion to carotid artery; assay: TNF-α-induced mononuclear cell (U937) adhesion in the murine carotid artery; type: in vivo; conditions: mouse, intra-arterial infusion 100 ng/kg/min, TNF-α 10 μg/kg i.p., 5 hours
Method: FIG. 3A is a graph showing the expression of VCAM-1 in the murine carotid artery at 5 hours after treatment with intraperitaneal injection of TNF-α (10 μg/kg) alone or in combination with continuous intra-arterial infusion of [11,12]-EET (100 ng/kg/min). FIG. 3B is a bar graph showing the effect of [11,12]-EET on TNF-α induced mononuclear cell adhesion in the murine carotid artery. The mononuclear cells (U937) were perfused through the carotid artery at a wall shear stress of 3 dyn/cm^2. Intra-arterial infusion of vehicle (saline) or [14,15]-EET (100 ng/kg/min) had no effect. […] All experiments except the [14,15]-EET infusion were performed in duplicate.
To determine the functional relevance of EETs in vascular inflammation, we tested [11,12]-EET and its regioisomer [14,15]-EET in a recently developed in vivo model of TNF-α-induced VCAM-1 -mediated mononuclear cell adhesion in the murine carotid artery. […]
Cell rolling and adhesion were recorded on videotape using stroboscopic epifluoresence illumination with an introvital microscope (objective Zeiss 20×, 0.5 numerical aperture). […] In separate experiments, VCAM-1 expression was measured in paraffin-sections (5 μm thick) of carotid arteries harvested from mice treated in the same way. […]

[4] = test system: VCAM-1 expression; assay: Cell-surface enzyme immunoassay of cytokine-induced VCAM-1 expression in endothelial cells; type: cell-based, human; conditions: human endothelial cells, 1-100 nM, TNF-α
Method: FIG. 2 is a set of bar graphs of cell-surface enzyme immunoassays. […] The difference between treatment with TNF-α alone and in the presence of [11,12]-EET were statistically significant (*p<0.05, **p<0.01), OD, optical density. […] After stimulation with TNF-α (10 ng/ml) in the presence or absence of EET, promoter activity was determined relative to basal activity. *p<0.01 vs. TNF-α alone.
To determine the biological effects of EETs, we treated tumor necrosis factor alpha (TNF-α)-stimulated human endothelial cells with physiological relevant concentrations (1-100 nM) of [5,6]-EET, [8,9]-EET, [11,12]-EET, [14,15]-EET, [11,12]-DHET.

[5] = target: mutated IκB-α substrate GST-IκB-α (Δ32,36: S→T) (UniProt P25963)
Sequence of mutated IκB-α substrate GST-IκB-α (Δ32,36: S→T) (P25963 other isoform, or with tags, fused parts or gaps mutant): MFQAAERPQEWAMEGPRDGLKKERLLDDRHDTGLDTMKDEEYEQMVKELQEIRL

[6] = target: purified GST-IκB-α fusion protein (wild-type) (UniProt P25963)
Sequence of purified GST-IκB-α fusion protein (wild-type) (P25963 1-54): as the sequence (P25963 other isoform, or with tags, fused parts or gaps mutant) above, with T32S, T36S counted along it

CC(C)C[C@@H](C=O)NC(=O)[C@H](CC(C)C)NC(=O)[C@H](CC(C)C)NC(=O)OCc1ccccc1 [MG132, reference compound] (Cbz-Leu-Leu-Leu-aldehyde)
effect on TNF-α-induced disappearance/degradation of IκB-α [1]: prevented

CCCCCC1OC1C/C=C\C/C=C\C/C=C\CCCC(=O)O (stereo not drawn) [[14,15]-EET]
hypoxia-reoxygenation-induced cell injury, number of trypan blue stained cells [2]: active in attenuating; also recorded: significantly attenuates
mononuclear cell adhesion to the vessel wall [3]: had no effect
inhibition of TNF-α-induced VCAM-1 expression (rank/words) [4]: did not inhibit

IκB kinase (IKK) immunoprecipitated from human endothelial cells
IKK activity (phosphorylation of mutated substrate) [5]: complete absence of phosphorylation when the mutated IκB-α substrate, GST-1κB-α (Δ32,36: S→T) which cannot be phosphorylated at serine residues 32 and 36, was substituted for wild-type GST-IκB-α
IKK activity (phosphorylation of GST-IκB-α substrate) [6]: Stimulation with TNF-α caused an increase in IKK activity
